From ChEMBL document CHEMBL1129058, “Indole inhibitors of human nonpancreatic secretory phospholipase A2. 2. Indole-3-acetamides with additional functionality” (J Med Chem, 1996) come the findings set out here.

Structures are written as SMILES. Values joined by “and” are separate entries in the source; they are usually repeats but may differ in a detail not shown here. Equal entries are not always repeated.

Assay [1] is filed under the species Cavia porcellus. The experiment in a line: Effective dose of compound against contraction of Guinea pig lung tissue with arachidonic acid. The format is functional.
In assay [2] the target is T1, Phospholipase A2, membrane associated (Homo sapiens) (UniProt P14555).
T1 sequence (whole entry): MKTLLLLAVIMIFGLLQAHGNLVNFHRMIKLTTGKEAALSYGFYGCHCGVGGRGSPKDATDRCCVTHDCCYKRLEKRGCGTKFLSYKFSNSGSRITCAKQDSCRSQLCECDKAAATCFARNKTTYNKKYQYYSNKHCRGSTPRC
The experiment in a line: Inhibitory activity against contraction of Guinea pig lung tissue induced by PLA2. To be noted: Cavia porcellus, target entry is the homologue from another species. The format is functional, tissue-based.

For assay [3], the target named is T2, Phospholipase A2, membrane associated (Homo sapiens, UniProt P14555).
T2 sequence (P14555 whole entry): T1 sequence (whole entry)
Put plainly: Inhibition of human non-pancreatic secretory phospholipase A2 (PLA2) in a chromogenic assay.

Take `NC(=O)Cc1c(Br)n(Cc2ccccc2)c2ccc(OCCCC(=O)O)cc12`: the ED50 in assay [1] was >10000 nM. Besides, the Kb in assay [2] came to 530 nM. The compound also showed an IC50 in assay [3] of 73 nM.
In the case of `CCc1c(CC(N)=O)c2cc(OCCCP(=O)(O)O)ccc2n1Cc1ccccc1`, the ED50 in assay [1] was >10000 nM.
`CCc1c(CC(N)=O)c2cc(OCCCP(=O)(O)O)ccc2n1Cc1cccc(Cl)c1` had a Kb in assay [2] of 240 nM.
In turn, `Cc1c(CC(N)=O)c2cc(OCCCC3=NNNN3)ccc2n1Cc1ccccc1` displayed an IC50 in assay [3] of 2450 nM.
The same measure, in the same setting: then `COC(=O)COc1cccc2c1c(CC(N)=O)c(C)n2Cc1ccccc1`, with 1380 nM.
In the case of `NC(=O)Cc1c(Br)n(Cc2ccccc2)c2cc(Cl)c(OCCCC(=O)O)cc12`, in assay [1], the ED50 was >10000 nM.
`CCc1c(CC(N)=O)c2cc(SCCCC(=O)O)c(C)cc2n1Cc1ccccc1`: in assay [3], 22 nM corresponded to half-maximal inhibition (IC50). This counts as double-digit nanomolar.
Consider `CCc1c(CC(N)=O)c2c(OCC(=O)O)cccc2n1Cc1ccccc1`, for which the ED50 in assay [1] was >3000 nM.
For `Cc1c(CC(N)=O)c2ccc(OCCCC(=O)NN)cc2n1Cc1ccccc1`, in assay [3], inhibition was half-maximal at 1270 nM (IC50).
On to `CCc1c(CC(N)=O)c2cc(OCCCP(=O)(O)O)c(C(C)C)cc2n1Cc1ccccc1`, for which, in assay [2], the Kb worked out at 698 nM. This compound also came in with an IC50 in assay [3] of 40 nM.
Consider `CCOC(=O)CCCCOc1ccc2c(CC(N)=O)c(C)n(Cc3ccccc3)c2c1`, for which the ED50 in assay [1] was >30000 nM. The Kb in assay [2] was 22500 nM. The compound also registered an IC50 in assay [3] of 306 nM.
`NC(=O)Cc1cn(Cc2ccccc2)c2cccc(OCC(=O)O)c12` registered an IC50 in assay [3] of 321 nM.
Regarding `Cc1c(CC(N)=O)c2cc(OCc3ccccc3C(=O)O)ccc2n1Cc1ccccc1`, the ED50 in assay [1] is >10000 nM. Moreover, the Kb in assay [2] is 720 nM. In assay [3], the IC50 was determined as 147 nM.
Take `Cc1c(CC(N)=O)c2cc(OCCCP(=O)(O)O)ccc2n1Cc1ccccc1-c1ccccc1`: in assay [1], the ED50 was >10000 nM.
For `Cc1c(CC(N)=O)c2c(O)cccc2n1Cc1ccccc1`, in assay [3], 8280 nM corresponded to half-maximal inhibition (IC50).
Regarding `CCc1c(CC(N)=O)c2cc(OCc3ccccc3C(=O)O)ccc2n1Cc1ccccc1`, half-maximal inhibition in assay [3] (IC50) required 555 nM. Against the preceding compound, the IC50 is about 15-fold lower.
Take `Cc1c(CC(N)=O)c2c(OCC(=O)O)cccc2n1Cc1ccccc1`: the ED50 in assay [1] is >10000 nM.
Consider `Cc1c(CC(=O)NN)c2cc(OCCCP(=O)([O-])[O-])ccc2n1Cc1ccccc1.[Na+].[Na+]`, for which the ED50 in assay [1] is >10000 nM. For the same compound, the Kb in assay [2] was 1070 nM. The compound also gave an IC50 in assay [3] of 462 nM.
Consider `Cc1c(CC(N)=O)c2c(OCP(=O)(O)O)cccc2n1Cc1ccccc1`, for which the ED50 in assay [1] is >10000 nM.
In turn, `Cc1c(CC(N)=O)c2c(OCC(=O)O)cccc2n1Cc1ccccc1-c1ccccc1` showed a Kb in assay [2] of 140 nM.
Take `Cc1c(CC(=O)NN)c2cc(OCCCC(=O)O)ccc2n1Cc1ccccc1`: the ED50 in assay [1] is >30000 nM. Further, the Kb in assay [2] is 2170 nM. Moreover, half-maximal inhibition in assay [3] (IC50) was put at 1020 nM.
For `Cc1c(CC(N)=O)c2cc(OCCCC(=O)O)ccc2n1Cc1ccccc1`, in assay [1], the ED50 is >30000 nM.
The compound `Cc1c(CC(N)=O)c2cc(O)ccc2n1Cc1ccccc1` gave an IC50 in assay [3] of 1020 nM.
In turn, `CCc1c(CC(N)=O)c2cc(OCCCP(=O)(O)O)c(C)cc2n1Cc1ccccc1` came in with a Kb in assay [2] of 202 nM. Also, inhibition in assay [3] was half-maximal at 15 nM (IC50).
On to `CCc1c(CC(N)=O)c2cc(OCCCC(=O)O)ccc2n1Cc1ccccc1`, for which the ED50 in assay [1] is >10000 nM.
`Cc1c(CC(N)=O)c2c(OCC(=O)NN)cccc2n1Cc1ccccc1` had a Kb in assay [2] of 1950 nM. The compound also came in with an IC50 in assay [3] of 422 nM.
In the case of `NC(=O)Cc1c(C2CC2)n(Cc2ccccc2)c2ccc(OCCCC(=O)O)cc12`, the IC50 in assay [3] was 44 nM.
Take `CCCc1c(CC(N)=O)c2cc(OCCCP(=O)(O)O)ccc2n1Cc1ccccc1`: the IC50 in assay [3] is 6130 nM.
In assay [3], `Cc1c(CC(N)=O)c2cc(NCCCC(=O)O)ccc2n1Cc1ccccc1` yielded an IC50 of 1830 nM.
In assay [3], `CCc1c(CC(N)=O)c2cc(OCCCP(=O)(OC)OC)ccc2n1Cc1ccccc1` returned an IC50 of 266 nM.
Same read-out and setting: then `Cc1c(CC(=O)O)c2cc(OCCCC(=O)O)ccc2n1Cc1ccccc1`, with 25900 nM; and `NC(=O)Cc1cn(Cc2ccccc2)c2ccc(OCCCC(=O)O)cc12`, with 180 nM.
In the case of `CCc1c(CC(N)=O)c2cc(SCCCP(=O)(O)O)ccc2n1Cc1ccccc1`, half-maximal inhibition in assay [3] (IC50) required 58 nM.
Take `C=CCc1c(O)ccc2c1c(CC(N)=O)c(CC)n2Cc1ccccc1`: the half-maximal inhibitory concentration (IC50) in assay [3] came out at 143 nM. This IC50 is about 2.5-fold higher than that of the compound before.
`NC(=O)Cc1c(Br)n(Cc2ccccc2)c2ccc(OCCCP(=O)(O)O)cc12` [listing 1 of 3 here]: the Kb in assay [2] was 440 nM and 1550 nM.
Compound `CCc1c(C(N)=O)c2c(OCC(=O)O)cccc2n1Cc1cccc(Cl)c1` returned an IC50 in assay [3] of 16800 nM.
Regarding `Cc1c(CC(N)=O)c2cc(OCCC(=O)O)ccc2n1Cc1ccccc1`, the ED50 in assay [1] is >30000 nM. In assay [2], this compound gave a Kb of 3760 nM. Besides, inhibition in assay [3] was half-maximal at 527 nM (IC50).
In assay [3], `NC(=O)Cc1c(Br)n(Cc2ccccc2)c2ccc(OCCCP(=O)(O)O)cc12` [listing 2 of 3 here] displayed a half-inhibitory concentration (IC50) of 165 nM. This lies in the sub-micromolar range.
As to `NC(=O)Cc1c(Br)n(Cc2ccccc2)c2ccc(OCCCP(=O)(O)O)cc12` [listing 3 of 3 here], in assay [1], the ED50 is >10000 nM. In assay [3], the IC50 was 33 nM.
In assay [3], `NC(=O)Cc1cn(Cc2ccccc2)c2ccc(OCCCP(=O)(O)O)cc12` registered an IC50 of 203 nM.
The same measure, in the same setting: then `Cc1c(CC(N)=O)c2cc(NCCC(=O)O)ccc2n1Cc1ccccc1`, with 3370 nM; and `Cc1c(CC(N)=O)c2c(O)cccc2n1Cc1cccc(Cl)c1`, with 5880 nM.
As to `CCc1c(CC(N)=O)c2cc(SCCCC(=O)O)ccc2n1Cc1ccccc1`, the Kb in assay [2] came out at 124 nM. 23 nM corresponded to half-maximal inhibition in assay [3] (IC50).
As to `Cc1c(CC(N)=O)c2ccc(OCCCC(N)=O)cc2n1Cc1ccccc1`, in assay [3], the IC50 worked out at 5830 nM.
Consider `Cc1c(CC(N)=O)c2cc(OCC(=O)O)ccc2n1Cc1ccccc1`, for which the ED50 in assay [1] is >30000 nM. Further, in assay [2], the Kb was determined as 8220 nM. Moreover, the IC50 in assay [3] came to 1790 nM.
In assay [3], `Cc1cc(OCCCC(=O)O)cc2c(CC(N)=O)c(C)n(Cc3ccccc3)c12` displayed an IC50 of 75 nM. This lies in the double-digit nanomolar range.
For the compound `CCc1c(CC(N)=O)c2cc(OCCCS(=O)(=O)O)ccc2n1Cc1ccccc1`, in assay [1], the ED50 is >10000 nM.
In assay [3], `NC(=O)Cc1c(Br)n(Cc2ccccc2)c2cc(Cl)c(O)cc12` came in with an IC50 of 85 nM.
Still for that read-out and setting: then `CCc1c(CC(N)=O)c2cc(SCCCC(=O)O)c(C(C)C)cc2n1Cc1ccccc1`, with 33 nM; and `NC(=O)Cc1cn(Cc2ccccc2)c2ccc(OCP(=O)(O)O)cc12`, with 3680 nM.
`Cc1c(CC(N)=O)c2c(OCC(=O)O)cccc2n1Cc1cccc(Cl)c1` returned a Kb in assay [2] of 190 nM. The same compound displayed an IC50 in assay [3] of 52 nM.
`Cc1c(CC(N)=O)c2cc(OCCCP(=O)(O)O)ccc2n1Cc1ccccc1`: the ED50 in assay [1] was >10000 nM.
Take `CCc1c(CC(N)=O)c2cc(OCCCC(=O)O)c(C)cc2n1Cc1ccccc1`: in assay [2], the Kb came out at 206 nM. For the same compound, the IC50 in assay [3] came to 33 nM.
For `CSc1c(CC(N)=O)c2cc(OCCCC(=O)O)ccc2n1Cc1ccccc1`, the ED50 in assay [1] was >10000 nM. The compound also returned a Kb in assay [2] of 630 nM. The same compound gave an IC50 in assay [3] of 162 nM.
For `Cc1c(CC(N)=O)c2cc(CCCC(=O)O)ccc2n1Cc1ccccc1`, in assay [2], the Kb was 332 nM. The IC50 in assay [3] turned out to be 155 nM.
Consider `Cc1cc(SCCCC(=O)O)cc2c(CC(N)=O)c(C)n(Cc3ccccc3)c12`, for which, in assay [3], the IC50 came out at 51 nM.
As to `Cc1c(CCC(N)=O)c2cc(OCCCC(=O)O)ccc2n1Cc1ccccc1`, the IC50 in assay [3] was 6930 nM. Compared with the last compound, the IC50 is about 140-fold higher.
`CCCc1c(CC(N)=O)c2cc(O)ccc2n1Cc1ccccc1` came in with an IC50 in assay [3] of 34000 nM.
For the compound `CCc1c(CC(N)=O)c2cc(OCCCP(=O)(O)OC)ccc2n1Cc1ccccc1`, in assay [1], the ED50 is >10000 nM. The same compound showed a Kb in assay [2] of 340 nM. For the same compound, it took 40 nM to reach half-maximal inhibition in assay [3] (IC50).
As to `Cc1c(CC(N)=O)c2cc(Oc3cccc(C(=O)O)c3)ccc2n1Cc1ccccc1`, the IC50 in assay [3] was > 110000 nM.
In the case of `CSc1c(CC(N)=O)c2cc(OCCCC(N)=O)ccc2n1Cc1ccccc1`, half-maximal inhibition in assay [3] (IC50) required 93 nM.
For the compound `NC(=O)Cc1c(Cl)n(Cc2ccccc2)c2ccc(OCCCC(=O)O)cc12`, the ED50 in assay [1] is >30000 nM. Further, the Kb in assay [2] was found to be 610 nM. In assay [3], this compound gave an IC50 of 77 nM.
Consider `Cc1c(CC(N)=O)c2cc(OCCCCC(=O)O)ccc2n1Cc1ccccc1`, for which the ED50 in assay [1] was >30000 nM. In assay [2], this compound had a Kb of 8800 nM. Also, 1150 nM corresponded to half-maximal inhibition in assay [3] (IC50).
As to `NC(=O)Cc1c(C2CC2)n(Cc2ccccc2)c2ccc(OCCCP(=O)(O)O)cc12`, the Kb in assay [2] came to 900 nM. The same compound had an IC50 in assay [3] of 74 nM.
With `CCc1c(CC(N)=O)c2cc(SCCC(=O)O)ccc2n1Cc1ccccc1`, in assay [3], half-maximal inhibition (IC50) required 59 nM.

For orientation: IC50 means the concentration needed to halve the response being measured. High values mean weaker potency in that assay, low ones greater potency in that assay.
